Experimental findings from US8546419B2, “Dual phase drug release system” (priority 2003, dated 2013) are described below.

The nature of one data set: in vivo. The note with it: mouse. As for the experimental part: The toxicity of CPT was evaluated in normal outbred mice, as well as in xenograft bearing nude athymic animals in the course of antineoplastic activity studies.
How the values of data set [1] were obtained:
The resultant suspension was diluted to 150 ml and extracted with methylene chloride (3×150 ml). Methylene chloride layers were combined, washed with 0.01 N HCl, and dried over magnesium sulfate. Solvent was removed in vacuum.

Data set [2] can be described thus: Hydrolytic stability and CPT release in aqueous media / phosphate buffered saline (RP HPLC). In kind it is physicochemical. How it is done: The second stage hydrolysis of CPT-SI was investigated analogously.
Using procedures analogous to the described above, CPT release from these conjugates was investigated in phosphate buffered saline as described above. The conjugates were also tested for cytotoxicity in HT29 cell culture.

The next data set relates to HT-29 xenograft. In kind it is in vivo. The following applies: HT29 model; for time of tumor growth from 0.10-0.15 cm^3 to 1.5 cm^3: 22.5 mg/kg, untreated control 24 days. As for the experimental part: Camptothecin and CPT-SI (the first phase release product) were used as controls.
Cells were injected subcutaneously into the left flank, 10^6 cells per animal in 50 μl. […] Animals of the first three groups received the respective experimental substance via the tail vein in five doses every three days (5xq3D). […] CPT and CPT-SI were administered as dispersions in Tween 80/water (9/1 v/v). Animal weight, tumor size, animal appearance, behavior, and survival rate were monitored for four weeks after administration. Weight loss over 20% and tumor growth over 1500 mm^3 were counted as lethalities (animals were euthanized).
The latter were administered as Cremofor® emulsions.

The subject of a further data set is HT29 cell culture. In words: Cytotoxicity of CPT derivatives, MTT assay. The note with it: HT-29 cell culture, 72 hours post treatment, read-out: ID50, growth inhibition. In kind it is cell-based, human. As for the experimental part:
Human colorectal adenocarcinoma HT-29 cell culture was from ATCC (ATCC HTB-38).
Cytotoxicity of CPT derivatives was investigated in HT29 cell culture. Cells were grown in McCoy's 5a medium with 1.5 mM L-glutamine supplemented with 10% FBS.
In general terms: Tetrazolium dyes change colour on reduction, which living cells bring about.

The subject of data set [3] is HT-29 human colorectal carcinoma cells. In words: Cell growth inhibition in vitro by Taxol preparations. The following applies: HT-29 cells, conjugate with Taxol content of 13%, read-out: ED50, cell growth inhibitory efficacy. In kind it is cell-based. As for the experimental part: PHF-SAG-Taxol conjugate synthesis was carried out on a 2-gram scale, at ambient temperature, pH 5.5-6.0. […] The PHF-SAG-Taxol was purified of low molecular weight impurities by gel filtration on G25 Sefadex column equilibrated with DI water, and recovered by lyophilyzation. […] Stability of PHF-Taxol conjugates in aqueous media was monitored by HPLC.

Where two headings read alike, the source gives them in different places.

Compound `CCc1c2c(nc3ccc(OC(=O)N4CCC(N5CCCCC5)CC4)cc13)-c1cc3c(c(=O)n1C2)COC(=O)[C@]3(O)CC` [Irinotecan] came in with an MTD in “in vivo” of 9 to 10 mg/kg.
As to “Camptothecin-20-(N-succinimidoglycinate) [CPT-SI]”, the solubility in water in data set [1] was below 1.0 µg/mL. Besides, the “half-time of subsequent (second stage) hydrolysis” value in data set [2] (depending on the conditions) is recorded as “over 20 hrs”. Moreover, in the data set on HT-29 xenograft, the “effect on tumor dynamics” value is on record as “no significant effect on tumor dynamics” and the “time of tumor growth from 0.10-0.15 cm^3 to 1.5 cm^3” value came out at 27 days. Moreover, the IC50 in the data set on HT29 cell culture was 34 nM.
“1,1-Dimethylsuccinic Acid-Linked PHF-CPT [PHF-DMSA-CPT]”: the “solubility (in words)” value in data set [1] is “soluble in water, saline and polar organic solvents”. Besides, in data set [2] (PBS at pH 7.47/37° C., first phase release), the CPT half-release time amounted to 0.6 h.
As for `CC[C@@]1(O)C(=O)OCc2c1cc1n(c2=O)Cc2cc3ccccc3nc2-1` [CPT, camptothecin, reference compound], in the data set with HT-29 xenograft, the “time of tumor growth from 0.10-0.15 cm^3 to 1.5 cm^3” value was determined as 40 days. In addition, the IC50 in the data set on HT29 cell culture (Homo sapiens) is 17 nM. The same compound returned an MTD in the data set “in vivo” of 9 to 10 mg/kg.
Consider `CC(=O)O[C@H]1C(=O)[C@@]2(C)[C@H]([C@H](OC(=O)c3ccccc3)[C@]3(O)C[C@H](OC(=O)[C@H](O)[C@@H](NC(=O)c4ccccc4)c4ccccc4)C(C)=C1C3(C)C)[C@]1(OC(C)=O)CO[C@@H]1C[C@@H]2O` [Taxol], for which the EC50 in data set [3] stood at 15 nM.
